Reference: ChEMBL document CHEMBL3885881, “DrugMatrix”

Species on record: Rattus norvegicus
Experiment: DrugMatrix - Regimen: Daily Repeat
Assay type: toxicity, organism-based, Sprague-Dawley
Set-up: regimen Daily Repeat, gender Male, age 6-8 weeks
Settings: in vivo, po, route oral GAVAGE, […]; for ABSOLUTE BASOPHIL / ABSOLUTE EOSINOPHIL / ABSOLUTE LYMPHOCYTE / ABSOLUTE MONOCYTE / ABSOLUTE SEGMENTED NEUTROPHIL / BASOPHIL / EOSINOPHIL / ERYTHROCYTE COUNT / HEMATOCRIT / HEMOGLOBIN / LEUKOCYTE COUNT / LYMPHOCYTE / MEAN CORPUSCULAR HEMOGLOBIN / MEAN CORPUSCULAR HEMOGLOBIN CONCENTRATION / MEAN CORPUSCULAR VOLUME / MONOCYTE / NEUTROPHIL / NUCLEATED RED BLOOD CELLS / PLATELET COUNT: tissue Blood; for ALANINE AMINOTRANSFERASE / ALBUMIN / ALKALINE PHOSPHATASE / ASPARTATE AMINOTRANSFERASE / BLOOD UREA NITROGEN / CARBON DIOXIDE / CHLORIDE / CHOLESTEROL / CREATINE PHOSPHOKINASE / CREATININE / GLUCOSE / LACTATE DEHYDROGENASE / LIPASE / PHOSPHORUS / POTASSIUM / SODIUM / TOTAL BILIRUBIN / TOTAL PROTEIN / URIC ACID: tissue Plasma
[1] = 5 mg/kg, 120 h, dose level Low, time 5 day
[2] = 50 mg/kg, 72 h, dose level High, time 3 day
[3] = 50 mg/kg, 120 h, dose level High, time 5 day

O=C(Nc1ccc(Cl)c(Cl)c1)c1cc(Cl)cc(Cl)c1O [3,3',4',5-TETRACHLOROSALICYLANILIDE]
ABSOLUTE BASOPHIL [1]: 0 CELLS/uL | ABSOLUTE EOSINOPHIL [1]: 0 CELLS/uL | ABSOLUTE LYMPHOCYTE [1]: 11308.33 CELLS/uL | ABSOLUTE MONOCYTE [1]: 94.67 CELLS/uL | ABSOLUTE SEGMENTED NEUTROPHIL [1]: 1830.33 CELLS/uL | BASOPHIL [1]: 0% | EOSINOPHIL [1]: 0% | ERYTHROCYTE COUNT [1]: 5.77 x10E6/uL | HEMATOCRIT [1]: 35.8% | HEMOGLOBIN [1]: 13.8 G/DL | LEUKOCYTE COUNT [1]: 13.23 x10E3/uL | LYMPHOCYTE [1]: 85.33% | MEAN CORPUSCULAR HEMOGLOBIN [1]: 23.93 pg | MEAN CORPUSCULAR HEMOGLOBIN CONCENTRATION [1]: 38.53 G/DL | MEAN CORPUSCULAR VOLUME [1]: 62.1 fL | MONOCYTE [1]: 0.67% | NEUTROPHIL [1]: 14% | NUCLEATED RED BLOOD CELLS [1]: 0.33 /100WBC | PLATELET COUNT [1]: 1151 x10E3/uL | ALANINE AMINOTRANSFERASE [1]: 59 u/L | ALBUMIN [1]: 4.07 G/DL | ALKALINE PHOSPHATASE [1]: 368.33 u/L | ASPARTATE AMINOTRANSFERASE [1]: 97.67 u/L | BLOOD UREA NITROGEN [1]: 14.33 mg/dL | CARBON DIOXIDE [1]: 28.67 mmol/L | CHLORIDE [1]: 101.33 MEQ/L | CHOLESTEROL [1]: 63.33 mg/dL | CREATINE PHOSPHOKINASE [1]: 534.67 u/L | CREATININE [1]: 0.21 mg/dL | GLUCOSE [1]: 164 mg/dL | LACTATE DEHYDROGENASE [1]: 242 u/L | LIPASE [1]: 11.33 u/L | PHOSPHORUS [1]: 10.3 mg/dL | POTASSIUM [1]: 5.94 MEQ/L | SODIUM [1]: 143.17 MEQ/L | TOTAL BILIRUBIN [1]: 0.13 mg/dL | TOTAL PROTEIN [1]: 5.77 G/DL | URIC ACID [1]: 1.63 mg/dL | ABSOLUTE BASOPHIL [2]: 0 CELLS/uL | ABSOLUTE EOSINOPHIL [2]: 28.67 CELLS/uL | ABSOLUTE LYMPHOCYTE [2]: 9453.33 CELLS/uL | ABSOLUTE MONOCYTE [2]: 0 CELLS/uL | ABSOLUTE SEGMENTED NEUTROPHIL [2]: 884.67 CELLS/uL | BASOPHIL [2]: 0% | EOSINOPHIL [2]: 0.33% | ERYTHROCYTE COUNT [2]: 5.84 x10E6/uL | HEMATOCRIT [2]: 36.23% | HEMOGLOBIN [2]: 13.87 G/DL | LEUKOCYTE COUNT [2]: 10.37 x10E3/uL | LYMPHOCYTE [2]: 91% | MEAN CORPUSCULAR HEMOGLOBIN [2]: 23.83 pg | MEAN CORPUSCULAR HEMOGLOBIN CONCENTRATION [2]: 38.33 G/DL | MEAN CORPUSCULAR VOLUME [2]: 62.23 fL | MONOCYTE [2]: 0% | NEUTROPHIL [2]: 8.67% | NUCLEATED RED BLOOD CELLS [2]: 0 /100WBC | PLATELET COUNT [2]: 1272.33 x10E3/uL | ALANINE AMINOTRANSFERASE [2]: 61.67 u/L | ALBUMIN [2]: 4.1 G/DL | ALKALINE PHOSPHATASE [2]: 432.67 u/L | ASPARTATE AMINOTRANSFERASE [2]: 89.67 u/L | BLOOD UREA NITROGEN [2]: 13.33 mg/dL | CARBON DIOXIDE [2]: 31 mmol/L | CHLORIDE [2]: 101.67 MEQ/L | CHOLESTEROL [2]: 79.67 mg/dL | CREATINE PHOSPHOKINASE [2]: 183.67 u/L | CREATININE [2]: 0.21 mg/dL | GLUCOSE [2]: 125.67 mg/dL | LACTATE DEHYDROGENASE [2]: 128.33 u/L | LIPASE [2]: 11.33 u/L | PHOSPHORUS [2]: 10.67 mg/dL | POTASSIUM [2]: 6.23 MEQ/L | SODIUM [2]: 144.27 MEQ/L | TOTAL BILIRUBIN [2]: 0.2 mg/dL | TOTAL PROTEIN [2]: 5.8 G/DL | URIC ACID [2]: 1.03 mg/dL | ABSOLUTE BASOPHIL [3]: 0 CELLS/uL | ABSOLUTE EOSINOPHIL [3]: 19.33 CELLS/uL | ABSOLUTE LYMPHOCYTE [3]: 5934.67 CELLS/uL | ABSOLUTE MONOCYTE [3]: 58 CELLS/uL | ABSOLUTE SEGMENTED NEUTROPHIL [3]: 688 CELLS/uL | BASOPHIL [3]: 0% | EOSINOPHIL [3]: 0.33% | ERYTHROCYTE COUNT [3]: 6.18 x10E6/uL | HEMATOCRIT [3]: 36.87% | HEMOGLOBIN [3]: 14 G/DL | LEUKOCYTE COUNT [3]: 6.7 x10E3/uL | LYMPHOCYTE [3]: 88.33% | MEAN CORPUSCULAR HEMOGLOBIN [3]: 22.73 pg | MEAN CORPUSCULAR HEMOGLOBIN CONCENTRATION [3]: 38.03 G/DL | MEAN CORPUSCULAR VOLUME [3]: 59.67 fL | MONOCYTE [3]: 0.67% | NEUTROPHIL [3]: 10.67% | NUCLEATED RED BLOOD CELLS [3]: 0 /100WBC | PLATELET COUNT [3]: 1091 x10E3/uL | ALANINE AMINOTRANSFERASE [3]: 49.33 u/L | ALBUMIN [3]: 4.27 G/DL | ALKALINE PHOSPHATASE [3]: 412 u/L | ASPARTATE AMINOTRANSFERASE [3]: 76 u/L | BLOOD UREA NITROGEN [3]: 15.67 mg/dL | CARBON DIOXIDE [3]: 32 mmol/L | CHLORIDE [3]: 101 MEQ/L | CHOLESTEROL [3]: 77.33 mg/dL | CREATINE PHOSPHOKINASE [3]: 289 u/L | CREATININE [3]: 0.25 mg/dL | GLUCOSE [3]: 133.33 mg/dL | LACTATE DEHYDROGENASE [3]: 94.67 u/L | LIPASE [3]: 11.67 u/L | PHOSPHORUS [3]: 9.23 mg/dL | POTASSIUM [3]: 5.61 MEQ/L | SODIUM [3]: 145.93 MEQ/L | TOTAL BILIRUBIN [3]: 0.13 mg/dL | TOTAL PROTEIN [3]: 6.07 G/DL | URIC ACID [3]: 1.03 mg/dL
